The values below come from patent US20250230215A1, “IMMUNE CELLS EXPRESSING GLUCOSE TRANSPORTER 5 (GLUT5) AND COMPOSITIONS AND METHODS INCLUDING THE SAME” (Memorial Sloan-Kettering Cancer Center, priority 2021, published 2025).

In general, aqueous solubility refers to the concentration that dissolves in the medium under given conditions. As a reminder, the Cmax is the highest concentration seen after dosing. Usually half-life stands for how long it takes for the measured level to halve. A lower half-life goes with rapid decline.

≈ marks a conversion by molar mass, not a printed value.

The target in one data set is PKM2 (Homo sapiens, UniProt P14618). As to conditions: PKM2 activation; cited from earlier work.
Sequence of PKM2 (P14618 whole entry): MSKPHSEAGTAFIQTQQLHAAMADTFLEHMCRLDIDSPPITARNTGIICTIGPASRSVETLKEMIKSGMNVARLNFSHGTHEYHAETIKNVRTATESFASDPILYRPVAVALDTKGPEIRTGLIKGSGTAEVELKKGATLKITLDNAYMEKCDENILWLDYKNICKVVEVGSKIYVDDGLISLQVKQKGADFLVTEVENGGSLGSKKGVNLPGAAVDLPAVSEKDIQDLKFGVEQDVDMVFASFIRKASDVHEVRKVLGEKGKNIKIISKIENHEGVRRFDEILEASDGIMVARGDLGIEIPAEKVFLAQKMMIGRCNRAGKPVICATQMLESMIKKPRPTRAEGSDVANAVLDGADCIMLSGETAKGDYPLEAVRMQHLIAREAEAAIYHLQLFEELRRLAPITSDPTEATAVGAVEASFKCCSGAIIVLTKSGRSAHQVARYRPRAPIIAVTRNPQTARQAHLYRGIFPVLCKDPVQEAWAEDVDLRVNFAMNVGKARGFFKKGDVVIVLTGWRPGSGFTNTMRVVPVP
The subject of data set [1] is red blood cell pyruvate kinase. As to conditions: over a broad range of PKLR genotypes; cited from earlier work.
Data set [2] is described as follows: Hyperpolarized lifetime and polarization of HP fructose probes. The class given is physicochemical. The source says:
FIG. 9A provides the mechanism for transport by GLUT5 and the first step of metabolism of fructose to fructofuranose-6-phosphate by hexokinase. FIG. 9B provides a T2-weighted image of a transgenic model of prostate cancer (TRAMP) mouse with tumor only on the right side of the prostate. Metabolic images of total hyperpolarized [2-^13C] fructose resonances (FIG. 9C) and the composite 0-fructofuranose-6-phosphate and β-fructofuranose (FIG. 9D) are shown overlaid on the T2 weighted image. Resonances corresponding to the β-fructopyranose and composite p-fructofuranose-6-phosphate and p-fructofuranose are shown in the corresponding spectral array (FIG. 9E). FIGS. 9A-9E adapted from Keshari et al. J Am Chem Soc. 2009 Dec. 9; 131(48):17591-6. […] An unassigned, spurious, low signal-to-noise resonance appears at 115 ppm. FIG. 9F provides a synthetic scheme for U-^2H-[2-^13C] fructose. The C2 is annotated by an C. FIG. 9G provides representative dynamic spectra of HP [2-^13C] fructose dissolved in D2O and HP U-^2H-[2-^13C] fructose dissolved in D20. Both solutions were approximately 30 mM and spectra acquired using 5° flip angle every 3 s.
Enhancement of hyperpolarized lifetimes using D2O solvation and application to HP fructose: In previous experiments, the necessary strategies and combined methods to develop not only novel probes for HP MRI but also bolus tracing experiments to confirm biochemistry in vivo. See Salamanca-Cardona et al. Cell Metab 26, 830-841 e833 (2017). While many molecular strategies have been developed for HP MRI, they generally suffer from short lifetimes (≤10 s) making flux through pathways of interest difficult to visualize in vivo. […] See Keshari et al. J Am Chem Soc 131, 17591-17596 (2009). In recent work, It was shown by the Applicant that utilization of rapid exchange between H2O and D2O can dramatically increase the lifetimes of the HP probes by greatly reducing dipolar relaxation. See Cho et al. J Magn Reson 295, 57-62 (2018). As such, a synthesis was developed for [2-^13C,U-^2H7] fructose at gram scale (FIG. 9F) as well as a preparation to hyperpolarize it. […]

Data set [3] can be described thus: Blood, tumor and liver fructose after IP injection of fructose in B16 tumor bearing mice. In kind it is in vivo. Here is the method:
Further this supports that HP fructose reaches the tumor and provides a platform for imaging.
In order to determine the effect of fructose addition into GLUT5-OV T cells in vivo, the assay is optimized for delivering fructose into the tumor microenvironment. Specifically, three methods are tested, including: (i) intraperitoneal (IP) and (ii) intravenous (IV) injections of fructose, and (iii) water bottle with high-fructose corn syrup (HFCS). IP and IV injections (4 g/kg) are conducted daily and 25% HFCS in water is provided for three weeks; twice a week during this time the fructose level in circulating blood is measured and an endpoint tumor fructose measurement is taken. A B16 melanoma mouse model is utilized. Briefly, B16 cells (2×10^5) are engrafted subcutaneously into C57BL/6 mice and assayed on Day 7 post-tumor-engraftment. In a second cohort of mice, with the same conditions, co-administration of the KHKi^53 used in Example 3 is performed to block the uptake of the liver and small intestine (the predominant sites of fructose uptake and subsequent phosphorylation by KHK). As shown in Example 1, a single IP injection of fructose was piloted and both the tumors and liver were extracted after 1 hr (FIG. 12). […] Given this PK data, this dose of KHKi is explored using multiple routes of delivery. Specially, a dose of 10 mg/kg was used and administered IP at the same time as the fructose delivery. Fructose concentration is measured in the circulating blood as well as the endpoint tumor with all 3 delivery methods (n=10 mice per group, total of 80 mice) utilizing a standard kit assay. See Goncalves et al. Science 363, 1345-1349 (2019). Taken together, these experiments provide the necessary data to determine which fructose delivery method is best for the remaining experiments.
Results, potential challenges and alternative solutions: In some embodiments, high dose injections of fructose allows for a transient but substantial increase in blood as well as tumor fructose levels (>2 mM). It was found by Applicant that with a single IP injection of fructose the blood concentration can be raised to >10 mM and tumor concentration can be raised to >2 mM. The dosing schedule relative to T-cell action is further optimized. It is possible that the fructose levels of tumors can not be further elevated in vivo due to the action of the liver and gluconeogenesis. […] This is readily in the range of detection for HP MRI. It is possible that HP lactate can not be detected in tumors from fructose due to the cellularity. At the minimum, however, HP F6P can be detected, which was previously detected in tumors that overexpress GLUT5; this informs on the degree of fructose metabolism into glycolysis. […]

For data set [4] the following is noted: PBS, pH 7.4; cited from earlier work.
Data set [5] in a line: Pharmacokinetic analysis of the KHKi in vivo. Also on record: species or system mice. As to conditions: mouse.
For another data set, the target named is T1, KHK (Homo sapiens, UniProt P50053).
T1 construct: endogenous in cells; host or cells: HepG2 cells
T1 sequence (P50053 1-298): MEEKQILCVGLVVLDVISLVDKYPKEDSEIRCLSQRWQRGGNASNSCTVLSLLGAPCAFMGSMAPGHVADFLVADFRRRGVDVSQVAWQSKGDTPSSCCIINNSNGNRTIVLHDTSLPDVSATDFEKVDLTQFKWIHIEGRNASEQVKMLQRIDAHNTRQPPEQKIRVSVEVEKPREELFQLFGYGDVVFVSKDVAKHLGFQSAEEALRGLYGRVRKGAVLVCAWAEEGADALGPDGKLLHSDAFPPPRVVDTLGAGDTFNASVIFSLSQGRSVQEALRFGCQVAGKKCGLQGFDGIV
The data set is described as follows: 13C NMR of [2-13C]F1P in HepG2 cell extract with KHKi treatment. As to conditions: treatment at 4 hr in vitro. The class given is cell-based. From the text: FIGS. 11A-11C provide fructose converted to fructose-1-phosphate (F1P) and later to lactate in vivo measured in transformed hepatocytes (HepG2 cells) using [2-^13C] fructose. FIG. 11A provides ^13C NMR spectra of media containing [2-^13C] fructose exposed to HepG2 cells. FIG. 11B provides a quantification of fructose consumption by HepG2.
Translation of novel hyperpolarized probes into in vivo animal models represents a great technical advance in the exploration of the modulate metabolism induced by GLUT5-OV. Using the optimized probe formulation for HP fructose, the metabolic conversion of fructose is explored in vivo in the liver of wild type B6 mice, as previously shown. […] [2-^13C]F1P resonates downfield of the C2 pyranose resonance; in Example 1, this conversion was measured in transformed hepatocytes (HepG2 cells, FIG. 11) using [2-^13C] fructose. When further converted, C2 lactate is generated (resonating at 70 ppm) from fructose and this has been detected previously in vivo derived from HP glucose (Rodrigues et al. Nat Med 20, 93-97 (2014)) and pyruvate (Park et al. Magn Reson Med 75, 973-984 (2016)). All imaging studies are conducted under IACUC-approved protocol #13-12-019. Briefly, mice are imaged using a 3T Bruker MRI equipped with a dual tune ^1H/^13C volume coil. […] This is then extracted and labeled metabolites are measured by LC/MS and NMR. […]

The mark [6] stands for this setting: single IP injection of fructose.

On to `Nc1cccc(S(=O)(=O)N2CCCN(S(=O)(=O)c3ccc4c(c3)OCCO4)CC2)c1` [DASA-58], for which the AC90 on PKM2 is recorded as 680 nM.

For `O=C(c1ccc(NS(=O)(=O)c2cccc3cccnc23)cc1)N1CCN(CC2CC2)CC1` [AG 348], the “effect on red blood cell pyruvate kinase” value in data set [1] was “increases enzymatic activity, protein stability, and ATP levels”.

Regarding `[2H]C([2H])(O)[13C](=O)[C@@]([2H])(O)[C@]([2H])(O)[C@]([2H])(O)C([2H])([2H])O` [[2-^13C,U-^2H7] fructose], the achieved polarization result in data set [2] is “greater than 10%”. Besides, the hyperpolarized lifetime in data set [2] (D2O solvation) stood at 1.5 min. Also, in data set [2] (versus HP [2-13C] fructose), the “lifetime relative to previously shown” value is given as 6 times.

Take `O=C(CO)[C@@H](O)[C@H](O)[C@H](O)CO` [fructose]: in data set [3] (setting [6]), the “blood concentration of fructose” value is over 10000 µM and the “tumor concentration of fructose” value is on record as over 2 mM.

With `Cn1c2cc([S+](C)[O-])sc2c2cnn(Cc3cccc(N)c3)c(=O)c21` (centres unmarked) [TEPP-46], the aqueous solubility in data set [4] is 79.5 µM (≈ 29.6 µg/mL).

In the case of `N#Cc1c(C(F)(F)F)cc(N2CCN(CCO)CC2)nc1N1CCCC(CO)C1` (centres unmarked) [KHKi, 6-(4-(2-Hydroxyethyl)piperazin-1-yl)-2-(3-(hydroxymethyl)-piperidin-1-yl)-4-(trifluoromethyl)nicotinonitrile], the Cmax in data set [5] (10 mg/kg, approximate conversion) is about 1 µM; in data set [5] (KHKi 10 mg/kg) it was 475 ng/mL. This molecule gave a half-life in data set [5] (KHKi 10 mg/kg) of 2 h. For the same molecule, on KHK, the “change in F1P” value is “decrease in F1P”. Also, the “extension of blood half-life of fructose” value in data set [3] (first attempt with the KHKi) came to 50%. The “tumor fructose with KHKi” value in data set [3] (single dose of KHKi with single IP injection of fructose, tumors extracted after 1 hr) was “further enhanced”.
